Reference: PubChem BioAssay AID1996
Values after ≈ are worked out from the molar mass of the structure shown.

Details: buffer; pH 7.4; 200.0 µM

| Structure (SMILES) | solubility kinetic |
| --- | --- |
| COc1ccc(CNc2nc(Cl)c(C#N)s2)cc1 | 1.1 µg/mL (≈ 3.93 µM) |
| CSc1ccccc1NC(=O)Nc1ccccc1Cl | 1.7 µg/mL (≈ 5.81 µM) |
| Cc1cc(Cl)c2ccc(Cl)cc2n1 | < 0.5 µg/mL |
| COc1ccc(-c2cc(C(=O)Nc3cc(C)on3)no2)cc1 | < 0.2 µg/mL |
| NS(=O)(=O)c1cccc(NS(=O)(=O)c2cccc(C(F)(F)F)c2)c1 | > 57.1 µg/mL |
| COc1cc(CNCc2ccncc2)cc(OC)c1OC.Cl | > 48.7 µg/mL |
| CC1CN(C(=O)COC(=O)c2ccc(F)cc2Cl)CC(C)O1 (stereo not given) | 43.1 µg/mL (≈ 131 µM) |
| CC(=O)Nc1ccc(NC(=O)CCOc2cc(C)ccc2C)cc1 | 2 µg/mL (≈ 6.13 µM) |
| O=C(Nc1cccc(NC(=O)C2CCCO2)c1)C1CCCO1 (stereo not given) | > 45.7 µg/mL |
| Cc1ccc(C(=O)OCC(=O)NCc2ccc3c(c2)OCO3)o1 | > 47.6 µg/mL |
| CCOC(=O)C1=C(O)/C(=C\c2cc(C)n(-c3ccccc3F)c2C)N=C1C | 32.6 µg/mL (≈ 88.5 µM) |
| CCOc1ccc(CCNC(=O)C2(c3ccccc3)CC2)cc1OCC | > 53 µg/mL |
| O=C(Nc1ccc(N2CCOCC2)cc1N1CCOCC1)c1ccc(F)cc1 | 42.2 µg/mL (≈ 109 µM) |
| CCCn1c(C(=O)c2ccc(OC)cc2)nc2ccccc21 | 1.7 µg/mL (≈ 5.78 µM) |
| O=C(Nc1ccc(Cl)cc1)C(Cl)C(=O)c1ccccc1 (stereo not given) | 11.8 µg/mL (≈ 38.3 µM) |
| O=c1c2ccccc2ncn1-c1ccccc1[N+](=O)[O-] | 35.9 µg/mL (≈ 134 µM) |
| CC(=O)Nc1c2c(nn1-c1ccc(C)cc1)CS(=O)(=O)C2 | > 45.8 µg/mL |
| COc1cccc(C=N[C@@H](CO)[C@@H](O)c2ccc([N+](=O)[O-])cc2)c1O | 50.6 µg/mL (≈ 146 µM) |
| Cc1ccc(C2CCN(C(=S)NC3CCCCC3)C2)cc1 (stereo not given) | 1.3 µg/mL (≈ 4.3 µM) |
| COCCCNC(=O)c1ccccc1-c1cc(C)no1 | 32.6 µg/mL (≈ 119 µM) |

| Structure (SMILES) | solubility kinetic |
| --- | --- |
| S=C(NCc1ccco1)Nc1ccc(Br)cn1 | 5 µg/mL (≈ 16 µM) |
| O=S1(=O)C[C@@H](O)[C@@H](Nc2ccccc2)C1 | > 34.1 µg/mL |
| CCCN(CC(=O)Nc1ccccc1C)C(=O)CCl | > 42.4 µg/mL |
| Cc1cc(C(=O)NCC2CCCCC2)ccc1[N+](=O)[O-] | 2.3 µg/mL (≈ 8.32 µM) |
| CCN(C(=O)COC(=O)c1nccnc1N)c1cccc2ccccc12 | > 52.6 µg/mL |
| CC(=O)c1c(C)[nH]c(C(=O)OCC(=O)N(Cc2ccccc2)C(C)(C)C)c1C | 12 µg/mL (≈ 31.2 µM) |
| CCn1c(SCc2cccc(OC)c2)nc2ccccc2c1=O | 0.8 µg/mL (≈ 2.45 µM) |
| O=S(=O)(c1ccc(-c2ccccc2)cc1)N1CCCC1 | 3 µg/mL (≈ 10.4 µM) |
| Cc1ccc(C(=O)OCC(=O)N2CCCCCC2)c(O)c1 | 14 µg/mL (≈ 48.1 µM) |
| Cc1ccc(N2CC(C(=O)NC3CC3)CC2=O)cc1Cl (stereo not given) | > 43.9 µg/mL |
| Cc1ccc2c(c1)/C(=C/c1ccccc1)C(=O)N2 | 2.3 µg/mL (≈ 9.78 µM) |
| NC(=NCc1ccco1)NC(=O)c1ccc(Cl)cc1 | > 41.7 µg/mL |
| COc1ccc(NC(=O)c2cc(-c3ccccn3)nc3ccccc23)c(OC)c1 | 3.8 µg/mL (≈ 9.86 µM) |
| N#Cc1nc(-c2ccccc2F)oc1N1CCCCC1 | 2.3 µg/mL (≈ 8.48 µM) |
| CN1C=CC=C/C1=C1/N=C(c2ccccc2)OC1=O | > 37.8 µg/mL |
| COc1ccc(NC(=O)CN(C)CC(=O)N2CC(=O)Nc3ccccc32)cc1 | > 57.4 µg/mL |
| c1ccc(-c2nccnc2-c2ccccc2)cc1 | 21.5 µg/mL (≈ 92.6 µM) |
| CC(C)NC(=O)CSc1ncccc1-c1nc2ccccc2[nH]1 | 46.9 µg/mL (≈ 144 µM) |
| O=C(N/N=C/c1ccccc1C(F)(F)F)c1ccc(O)cc1 | > 46.2 µg/mL |
| Cc1ccc(S(=O)(=O)N2CCOCC2)cc1NCC(=O)Nc1ccc(OC(F)(F)F)cc1 | 3 µg/mL (≈ 6.34 µM) |

| Structure (SMILES) | solubility kinetic |
| --- | --- |
| Cc1ccc2nc(COC(=O)c3ccc(Cl)nc3)cc(=O)n2c1 | 7.3 µg/mL (≈ 22.1 µM) |
| O=S(=O)(c1ccccc1)N1CCN(Cc2c(O)ccc3ccccc23)CC1 | 6.6 µg/mL (≈ 17.3 µM) |
| COc1ccc(NC(=O)CSCCc2ccccn2)cc1OC | 48.7 µg/mL (≈ 146 µM) |
| O=C1CN(C(=O)/C=C/c2ccc(Cl)cc2Cl)CCN1 | 44.2 µg/mL (≈ 148 µM) |
| COc1ccc(/C=C/C(=O)NCc2ccccn2)cc1OC | > 44.8 µg/mL |
| CC(C)c1ccc(CNc2ccc3c(c2)ncn3C)cc1 | 22 µg/mL (≈ 78.7 µM) |
| CC(NC(=O)COc1ccccc1Cl)c1ccccc1 (stereo not given) | > 43.5 µg/mL |
| O=C1CC(c2ccccc2)CN1 (stereo not given) | > 24.2 µg/mL |
| Cc1nc(NC(=O)c2ccccc2O)sc1C | 10.2 µg/mL (≈ 41.1 µM) |
| CCOC(=O)c1ccc2c(c1)nc(-c1ccccn1)n2CC | 11.4 µg/mL (≈ 38.6 µM) |
| COc1ccccc1C(=O)OCc1ccc2sc(C)nc2c1 | 3.1 µg/mL (≈ 9.89 µM) |
| COc1ccccc1C1CCN(Cc2ccc(Cl)cc2Cl)CC1 | < 0.8 µg/mL |
| CCOc1cc(N2CCOCC2)c(OCC)cc1NC(=O)c1ccc(OC)c(S(=O)(=O)N2CCOCC2)c1 | 45.2 µg/mL (≈ 82.2 µM) |
| CN(C(=O)CCc1nc2ccccc2c(=O)[nH]1)C1CCS(=O)(=O)C1 (stereo not given) | > 52.4 µg/mL |
| Cc1ccc(S(=O)(=O)N2CCC3(CC2)OCCO3)c(C)c1 | > 46.7 µg/mL |
| Cc1nc2nc(SCC(=O)c3ccccc3)[nH]c2cc1Br | < 0.3 µg/mL |
| CCN(CC)c1nc2c(c(=O)n(C)c(=O)n2C)n1CCCc1ccccc1 | 50.7 µg/mL (≈ 137 µM) |
| Cc1ccccc1N1C(=O)C2C3CCC(O3)C2C1=O (stereo not given) | > 38.6 µg/mL |
| Brc1ccc(-n2cnc(-c3ccccc3)c2)cc1 | 1 µg/mL (≈ 3.34 µM) |
| O=C(CCCOc1ccc(Cl)cc1)NCCc1ccccc1 | 1.5 µg/mL (≈ 4.72 µM) |
